ChEMBL document CHEMBL1201862, “PubChem BioAssay data set” (2004)
Calls of active or inactive are those of the source. Unless noted, no cut-off for these calls is given here.

What was measured:
[1] = tested on: Vero; assay: Vero E6 cell cytotoxicity, dose response, cytotoxicity control (AID 540298); type: functional; settings: Chlorocebus sabaeus
[2] = tested on: MDCK; assay: MDCK cell cytotoxicity, dose response, cytotoxicity control (AID 540296); type: functional; settings: Canis lupus familiaris
[3] = tested on: MDCK; assay: antiviral activity against H1N1 influenza, dose response, cell-based, strain KY136 (AID 540257); type: functional; settings: Canis lupus familiaris
[4] = molecular target: Keap1/Nrf2 (Homo sapiens, UniProt Q14145); assay: Keap1-Nrf2 protein-protein interaction inhibitors, dose response, biochemical, fluorescence polarization, cherry-picked samples (AID 588683)
Sequence of Keap1/Nrf2 (Q16236 whole entry): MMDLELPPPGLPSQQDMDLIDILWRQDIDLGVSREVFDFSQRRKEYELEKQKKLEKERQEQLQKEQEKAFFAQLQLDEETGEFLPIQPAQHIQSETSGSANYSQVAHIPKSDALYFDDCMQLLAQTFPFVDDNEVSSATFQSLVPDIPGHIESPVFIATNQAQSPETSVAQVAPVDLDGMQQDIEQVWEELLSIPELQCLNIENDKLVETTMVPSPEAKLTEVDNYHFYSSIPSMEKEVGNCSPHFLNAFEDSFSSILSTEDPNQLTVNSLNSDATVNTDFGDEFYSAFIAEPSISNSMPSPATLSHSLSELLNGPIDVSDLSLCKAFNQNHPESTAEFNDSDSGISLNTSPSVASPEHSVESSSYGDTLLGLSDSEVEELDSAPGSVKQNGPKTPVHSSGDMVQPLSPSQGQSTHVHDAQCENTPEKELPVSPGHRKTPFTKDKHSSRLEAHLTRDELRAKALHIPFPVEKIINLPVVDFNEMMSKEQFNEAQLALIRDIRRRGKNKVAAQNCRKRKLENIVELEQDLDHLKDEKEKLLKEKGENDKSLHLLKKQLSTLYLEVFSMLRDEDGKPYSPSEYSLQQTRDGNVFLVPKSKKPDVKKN
Sequence of Keap1/Nrf2 (Q14145 whole entry): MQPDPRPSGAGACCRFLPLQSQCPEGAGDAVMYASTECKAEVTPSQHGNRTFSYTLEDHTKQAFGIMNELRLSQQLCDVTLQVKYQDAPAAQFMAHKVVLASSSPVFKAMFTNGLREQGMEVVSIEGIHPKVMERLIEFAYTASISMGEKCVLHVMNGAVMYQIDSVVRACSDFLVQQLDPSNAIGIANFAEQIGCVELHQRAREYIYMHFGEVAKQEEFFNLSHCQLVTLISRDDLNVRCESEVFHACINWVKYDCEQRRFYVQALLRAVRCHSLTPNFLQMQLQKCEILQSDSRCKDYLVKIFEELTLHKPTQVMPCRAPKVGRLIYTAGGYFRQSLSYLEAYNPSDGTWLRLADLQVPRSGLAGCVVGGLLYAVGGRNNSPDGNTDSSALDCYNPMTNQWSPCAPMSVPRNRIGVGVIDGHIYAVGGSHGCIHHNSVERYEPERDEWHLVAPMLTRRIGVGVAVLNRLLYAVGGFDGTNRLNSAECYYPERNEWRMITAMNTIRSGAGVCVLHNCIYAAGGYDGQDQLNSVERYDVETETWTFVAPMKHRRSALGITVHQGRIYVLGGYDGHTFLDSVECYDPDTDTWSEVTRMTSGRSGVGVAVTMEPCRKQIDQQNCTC

[5] = molecular target: NS3 (Hepatitis C virus, UniProt A3EZJ3); assay: PubChem AID 2173; design: species or system Hepacivirus hominis
Sequence of NS3 (A3EZJ3 whole entry): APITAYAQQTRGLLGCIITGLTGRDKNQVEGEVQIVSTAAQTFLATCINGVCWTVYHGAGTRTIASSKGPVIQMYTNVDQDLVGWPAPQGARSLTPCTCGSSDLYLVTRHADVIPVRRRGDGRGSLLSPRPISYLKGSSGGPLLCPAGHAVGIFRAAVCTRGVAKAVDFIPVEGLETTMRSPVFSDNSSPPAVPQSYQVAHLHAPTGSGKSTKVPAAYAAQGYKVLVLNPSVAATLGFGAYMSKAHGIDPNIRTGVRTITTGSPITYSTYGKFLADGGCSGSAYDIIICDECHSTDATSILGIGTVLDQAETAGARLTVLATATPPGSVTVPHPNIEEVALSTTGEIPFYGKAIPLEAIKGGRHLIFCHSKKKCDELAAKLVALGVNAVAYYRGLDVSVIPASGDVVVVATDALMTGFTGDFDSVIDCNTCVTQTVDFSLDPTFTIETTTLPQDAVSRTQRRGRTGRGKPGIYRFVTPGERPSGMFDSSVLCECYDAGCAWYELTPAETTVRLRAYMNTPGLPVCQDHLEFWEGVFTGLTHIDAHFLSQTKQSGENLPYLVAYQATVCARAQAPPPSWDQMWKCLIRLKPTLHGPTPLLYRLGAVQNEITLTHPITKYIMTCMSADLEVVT

[6] = Late-stage probe development counterscreen for inhibitors of the Hepatitis C Virus non-structural protein 3 helicase (NS3): luminescence-based cell-based dose response assay to determine whether compounds that inhibit replication of HCV RNA replicon are cytotoxic. [Related pubchem assays (depositor defined):AID1800, AID1830, AID1845, AID1943, AID1945, AID2172, AID2173, AID2474, AID2476]; type: functional
[7] = molecular target: Heat shock protein HSP 90-alpha (Homo sapiens, UniProt P07900); assay: Luminescence-based dose response biochemical high throughput screening assay for inhibitors of the Heat Shock Protein 90 (HSP90). [Related pubchem assays: 1831 (Summary AID.), 1846 (Confirmation screen.), 1789 (Primary screen.)]
[8] = molecular target: Luciferin 4-monooxygenase (Photuris pensylvanica, UniProt Q27757); assay: firefly luciferase enzyme inhibitors, dose response, counter-screen for HSF-1 reporter inhibitor project, biochemical, Cell Titer Glo, luminescence, cherry-picks (AID 588847)
Sequence of Luciferin 4-monooxygenase (Q27757 whole entry): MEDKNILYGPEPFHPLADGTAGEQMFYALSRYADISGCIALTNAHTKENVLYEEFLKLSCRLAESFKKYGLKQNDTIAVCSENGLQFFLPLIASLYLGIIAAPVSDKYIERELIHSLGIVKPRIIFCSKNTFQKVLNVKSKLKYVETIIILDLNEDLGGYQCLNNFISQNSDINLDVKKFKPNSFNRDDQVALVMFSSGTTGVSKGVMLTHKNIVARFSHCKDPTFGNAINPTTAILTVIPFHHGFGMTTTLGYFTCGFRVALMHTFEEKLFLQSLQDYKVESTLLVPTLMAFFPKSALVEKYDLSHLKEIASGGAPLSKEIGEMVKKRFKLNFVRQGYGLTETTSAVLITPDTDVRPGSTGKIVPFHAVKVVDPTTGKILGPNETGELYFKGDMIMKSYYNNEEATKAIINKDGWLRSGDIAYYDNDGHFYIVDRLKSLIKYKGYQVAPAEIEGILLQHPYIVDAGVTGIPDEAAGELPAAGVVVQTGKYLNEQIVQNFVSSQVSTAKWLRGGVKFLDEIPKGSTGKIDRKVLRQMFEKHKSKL

[9] = molecular target: Beta-adrenergic receptor kinase 1 (Homo sapiens, UniProt P25098); assay: GRK2 inhibitors displacing RNA aptamer, dose response, biochemical, flow cytometry beads, FAM-aptamer, powder set 1 (AID 588720)
Sequence of Beta-adrenergic receptor kinase 1 (P25098 whole entry): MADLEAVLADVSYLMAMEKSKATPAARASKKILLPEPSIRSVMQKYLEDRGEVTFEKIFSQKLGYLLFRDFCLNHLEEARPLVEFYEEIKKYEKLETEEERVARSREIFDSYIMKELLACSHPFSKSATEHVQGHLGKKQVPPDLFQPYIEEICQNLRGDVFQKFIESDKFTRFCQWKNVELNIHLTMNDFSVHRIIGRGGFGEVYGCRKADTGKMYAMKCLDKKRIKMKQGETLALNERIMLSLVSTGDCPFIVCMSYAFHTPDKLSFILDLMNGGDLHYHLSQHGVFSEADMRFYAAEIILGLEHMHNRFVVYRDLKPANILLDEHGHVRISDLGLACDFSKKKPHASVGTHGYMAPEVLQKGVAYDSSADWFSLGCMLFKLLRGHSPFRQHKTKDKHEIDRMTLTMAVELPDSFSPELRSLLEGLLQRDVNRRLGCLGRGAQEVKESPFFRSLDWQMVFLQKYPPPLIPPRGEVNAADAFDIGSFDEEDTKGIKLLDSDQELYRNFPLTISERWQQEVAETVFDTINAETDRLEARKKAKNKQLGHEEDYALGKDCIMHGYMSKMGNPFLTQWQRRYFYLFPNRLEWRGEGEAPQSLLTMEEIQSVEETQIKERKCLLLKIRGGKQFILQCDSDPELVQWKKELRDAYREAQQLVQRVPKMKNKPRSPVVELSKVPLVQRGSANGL

[10] = tested on: Candida albicans; assay: growth inhibition of resistant C. albicans, dose response, CaCi-8 strain, fluconazole, dry powder, set 4 (AID 488950); type: functional, organism-based
[11] = tested on: Candida albicans; assay: growth inhibition of resistant C. albicans, dose response, CaCi-8, fluconazole, Alamar Blue, dry powder (AID 488807); type: functional, organism-based
[12] = tested on: NIH3T3; assay: cytotoxicity in NIH-3T3 fibroblasts, dose response, cytotoxicity control for antifungal drug resistance project, cell-based, Alamar Blue, fluconazole, dry powder (AID 488809); type: functional; settings: Mus musculus

CC1CCN(c2nc(NCc3ccco3)nc(N)c2[N+](=O)[O-])CC1
CC50 [1]: > 40 µM (active)
CC50 [2]: 11.4 µM (active)
IC50 [3]: 2.57 µM (active)

COc1cc(OC)c(S(=O)(=O)Nc2ccccc2C(=O)O)cc1S(=O)(=O)Nc1ccccc1C(=O)O
AC50 [4]: > 52 µM (inactive)

Cc1ccc(C(=O)C2=C(O)C(=O)N(Cc3ccco3)C2c2cccc(Cl)c2)o1 (configuration not stated)
IC50 [5]: 5.36 µM (active)
CC50 [6]: > 100 µM (inactive)

CC(C)Sc1nc(SCC(=O)NCc2ccco2)c2c3c(sc2n1)COC(C)(C)C3
IC50 [7]: 8.37 µM (active)
AC50 [8]: > 52 µM (inactive)

Cc1ccccc1NC(=O)CCS(=O)(=O)c1ccc(Br)cc1
EC50 [9]: 11.4 µM (active)

O=C(C1CC1)N1CCN(c2ccnc3cc(Cl)ccc23)CC1
AC50 [10]: 12.4 µM (active)
AC50 [11]: 3.25 µM (active)
AC50 [12]: 1.7 µM (active)
